Source: US20250051383A1, “NOVEL FEAZD, NIAZD, AND CUAZD COMPLEXES INCORPORATING 1-(2-HYDROXYPHENYLAZO)-2-NAPHTHOL (H2AZD) FOR BIOLOGICAL APPLICATIONS” (KING FAISAL UNIVERSITY, priority 2023, published 2025)
In brackets after ≈: the same amount, converted by molar mass. Like-named read-outs stand apart in the source and are kept apart here.

What was measured:
Format in all cases: cell-based
Escherichia coli (−ve) [1] = test: Disc diffusion, inhibition zone and activity index vs chloramphenicol; set-up: activity index (%): concentration or dose not given beside the values; conditions: for inhibition zone (IZ): disc diffusion; for activity index (%): IZ of test compound/IZ of standard chloramphenicol ×100
Experimental: (§1) The in vitro antibacterial and antifungal activity of the components was assessed using a series of bacteria (Pseudomonas aeruginosa (−ve), Staphylococcus aureus (+ve), Escherichia coli (−ve), and Bacillus cereus (+ve)) and fungi (Trichophyton rubrum, Aspergillus flavus, and Candida albicans). The disc diffusion method was used to perform the in vitro antimicrobial activity tests. The biological activity of each compound was determined by examining its impact on the size of the inhibition zone, which is a measure of the compound's effectiveness in inhibiting the growth of microorganisms. The inhibitory zone (IZ) surrounding the disc was measured in millimeters. The activity of the current compounds was compared to that of the standard antibiotic chloramphenicol, and the % Activity Index (%=IZ of test compound/IZ of Standard)×100, was evaluated.

[2] = system: Pseudomonas aeruginosa (−ve); test: as above; set-up: activity index (%): concentration or dose not given beside the values; conditions: for inhibition zone (IZ): disc diffusion; for activity index (%): IZ of test compound/IZ of standard chloramphenicol ×100
Experimental: as §1

Aspergillus flavus [3] = test: as above; conditions: for activity index (%): IZ of test compound/IZ of standard ×100; for inhibition zone (IZ): disc diffusion
Experimental: as §1

Bacillus cereus (+ve) [4] = test: as above; conditions: for activity index (%): IZ of test compound/IZ of standard chloramphenicol ×100; for inhibition zone (IZ): disc diffusion
Experimental: as §1

Candida albicans [5] = test: as above; conditions: for activity index (%): IZ of test compound/IZ of standard ×100; for inhibition zone (IZ): disc diffusion
Experimental: as §1

[6] = system: Staphylococcus aureus (+ve); test: as above; conditions: for activity index (%): IZ of test compound/IZ of standard chloramphenicol ×100; for inhibition zone (IZ): disc diffusion
Experimental: as §1

Trichophyton rubrum [7] = test: as above; conditions: for activity index (%): IZ of test compound/IZ of standard ×100; for inhibition zone (IZ): disc diffusion
Experimental: as §1

Aspergillus flavus [8] = test: MIC by repeated dilution
Text: (§2) The MIC, or the lowest concentration of a drug that can inhibit the development of bacteria or fungi, is often used as a starting point in larger preclinical studies of new antibacterial medications. The MIC value was obtained by repeatedly diluting a sample until the desired concentration was reached.

Bacillus cereus (+ve) [9] = test: MIC by repeated dilution
Text: as §2

Candida albicans [10] = test: MIC by repeated dilution
Text: as §2

Escherichia coli (−ve) [11] = test: MIC by repeated dilution
Text: as §2

[12] = system: Pseudomonas aeruginosa (−ve); test: MIC by repeated dilution
Text: as §2

[13] = system: Staphylococcus aureus (+ve); test: MIC by repeated dilution
Text: as §2

Trichophyton rubrum [14] = test: MIC by repeated dilution
Text: as §2

bacteria or fungi = test: MIC by repeated dilution, summary over the tested bacteria and fungi
Text: as §2

| SMILES | inhibition zone (IZ) (Escherichia coli (−ve) [1]) [mm] | inhibition zone (IZ) [2] [mm] | activity index (%) (Aspergillus flavus [3]) | inhibition zone (IZ) (Aspergillus flavus [3]) [mm] | activity index (%) (Bacillus cereus (+ve) [4]) | inhibition zone (IZ) (Bacillus cereus (+ve) [4]) [mm] | activity index (%) (Candida albicans [5]) | inhibition zone (IZ) (Candida albicans [5]) [mm] | activity index (%) [6] [%] | inhibition zone (IZ) [6] [mm] | activity index (%) (Trichophyton rubrum [7]) | inhibition zone (IZ) (Trichophyton rubrum [7]) [mm] | MIC (Aspergillus flavus [8]) [ppm] | MIC (Bacillus cereus (+ve) [9]) [ppm] | MIC (Candida albicans [10]) [ppm] | MIC (Escherichia coli (−ve) [11]) [ppm] | MIC [12] [ppm] | MIC [13] [ppm] | MIC (Trichophyton rubrum [14]) [ppm] | activity index (%) (Escherichia coli (−ve) [1]) | other results |
| --- | --- | --- | --- | --- | --- | --- | --- | --- | --- | --- | --- | --- | --- | --- | --- | --- | --- | --- | --- | --- | --- |
| O.O.O.c1ccc2c(c1)N=Nc1c(ccc3ccccc13)[O][Cu][O]2 [CuAZD] | 13 | 13 | 63.16 | 12 | 72.22 | 13 | 61.90 | 13 | 77.78 | 14 | 59.09 | 13 | 6.25 | 6.25 | 6.25 | 3.125 | 6.25 | 6.25 | 6.25 | – | – |
| O.c1ccc2c(c1)N=Nc1c(ccc3ccccc13)[O][Ni][O]2 [NiAZD] | 11 | 11 | 52.63 | 10 | 61.11 | 11 | 52.38 | 11 | 72.22 | 13 | 45.45 | 10 | 6.25 | 6.25 | 6.25 | 6.25 | 12.5 | 6.25 | 6.25 | 55.00 | activity index (%) [2]: 61.11% |
| Oc1ccccc1N=Nc1c(O)ccc2ccccc12 [H2AZD, 1-(2-hydroxyphenylazo)-2-naphthol] | 8 | 8 | 42.11 | 8 | 44.44 | 8 | 38.10 | 8 | 50.00 | 9 | 31.82 | 7 | – | – | – | – | – | – | – | 40.00 | activity index (%) [2]: 44.44%; MIC (Aspergillus flavus [8]; read-out: MIC): 50 µg/mL (≈ 189 µM); MIC (Bacillus cereus (+ve) [9]; read-out: MIC): 50 µg/mL (≈ 189 µM); MIC (Candida albicans [10]; read-out: MIC): 50 µg/mL (≈ 189 µM); MIC (Escherichia coli (−ve) [11]; read-out: MIC): 50 µg/mL (≈ 189 µM); MIC ([12]; read-out: MIC): 50 µg/mL (≈ 189 µM); MIC ([13]; read-out: MIC): 50 µg/mL (≈ 189 µM); MIC (Trichophyton rubrum [14]; read-out: MIC): 50 µg/mL (≈ 189 µM); MIC (bacteria or fungi): ~50 µg/mL (≈ 189 µM) |
| O.O.[Cl][Fe]1[O]c2ccccc2N=Nc2c(ccc3ccccc23)[O]1 [FeAZD] | 12 | 11 | 52.63 | 10 | 66.67 | 12 | 57.14 | 12 | 72.22 | 13 | 50.00 | 11 | 6.25 | 6.25 | 6.25 | 6.25 | 12.5 | 6.25 | 6.25 | 60.00 | activity index (%) [2]: 61.11% |
